Columns and labels:
KRas^Q61H = KRas^Q61H (Homo sapiens, UniProt P01116, Q61H); test: biochemical
KRas^WT = biological target: T1, KRas^WT (Homo sapiens, UniProt P01116); test: KRas binding assay (TR-FRET displacement of Cy5 labelled tracer)
T1 construct: […]; biotin (biotinylated); purchased Accelegan Inc

KRas^G12R = biological target: T2, KRas^G12R (Homo sapiens, UniProt P01116, G12R); test: as above
T2 construct: […]; biotin (biotinylated); purchased Accelegan Inc

KRas^G12C = KRas^G12C (Homo sapiens, UniProt P01116, G12C); test: biochemical
KRas^G13D = KRas^G13D (Homo sapiens, UniProt P01116, G13D); test: biochemical
KRas^G12S = biological target: T3, KRas^G12S (Homo sapiens, UniProt P01116, G12S); test: KRas binding assay (TR-FRET displacement of Cy5 labelled tracer)
T3 construct: […]; biotin (biotinylated); purchased Accelegan Inc

KRas^G12V = biological target: T4, KRas^G12V (Homo sapiens, UniProt P01116, G12V); test: as above
T4 construct: […]; biotin (biotinylated); purchased Accelegan Inc

KRas^G12D = biological target: T5, KRas^G12D (Homo sapiens, UniProt P01116, G12D); test: as above
T5 construct: […]; biotin (biotinylated); purchased Accelegan Inc

KRas^G12A = biological target: T6, KRas^G12A (Homo sapiens, UniProt P01116, G12A); test: as above
T6 construct: […]; biotin (biotinylated); purchased Accelegan Inc
T6 sequence (P01116 1-169 isoform P01116-2 G12A): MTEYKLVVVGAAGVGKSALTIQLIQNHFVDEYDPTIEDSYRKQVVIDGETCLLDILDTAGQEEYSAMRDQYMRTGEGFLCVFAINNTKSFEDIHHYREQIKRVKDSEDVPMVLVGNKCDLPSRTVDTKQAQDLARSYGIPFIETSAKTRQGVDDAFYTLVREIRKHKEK

T1 sequence (P01116 1-169 isoform P01116-2): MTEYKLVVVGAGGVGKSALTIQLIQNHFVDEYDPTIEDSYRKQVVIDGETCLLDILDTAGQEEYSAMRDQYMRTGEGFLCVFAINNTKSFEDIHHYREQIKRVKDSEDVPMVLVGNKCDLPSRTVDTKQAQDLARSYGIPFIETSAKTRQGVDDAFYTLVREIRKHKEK
T2 sequence (P01116 1-169 isoform P01116-2 G12R): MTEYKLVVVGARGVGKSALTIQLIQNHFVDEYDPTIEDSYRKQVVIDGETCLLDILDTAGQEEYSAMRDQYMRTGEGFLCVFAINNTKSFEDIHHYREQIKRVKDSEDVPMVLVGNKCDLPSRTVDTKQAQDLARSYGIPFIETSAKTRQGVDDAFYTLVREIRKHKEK
KRas^Q61H, sequence (P01116 1-169 isoform P01116-2 Q61H): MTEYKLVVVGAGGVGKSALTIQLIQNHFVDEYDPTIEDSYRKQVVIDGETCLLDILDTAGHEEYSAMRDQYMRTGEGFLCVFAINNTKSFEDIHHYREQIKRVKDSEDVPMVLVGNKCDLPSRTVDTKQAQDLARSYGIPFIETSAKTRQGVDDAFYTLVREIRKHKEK
KRas^G12C, sequence (P01116 1-169 isoform P01116-2 G12C): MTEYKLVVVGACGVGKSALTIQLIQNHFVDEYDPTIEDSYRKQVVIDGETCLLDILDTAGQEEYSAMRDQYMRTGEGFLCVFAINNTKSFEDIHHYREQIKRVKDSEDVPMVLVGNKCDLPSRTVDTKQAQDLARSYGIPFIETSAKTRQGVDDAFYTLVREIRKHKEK
T4 sequence (P01116 1-169 isoform P01116-2 G12V): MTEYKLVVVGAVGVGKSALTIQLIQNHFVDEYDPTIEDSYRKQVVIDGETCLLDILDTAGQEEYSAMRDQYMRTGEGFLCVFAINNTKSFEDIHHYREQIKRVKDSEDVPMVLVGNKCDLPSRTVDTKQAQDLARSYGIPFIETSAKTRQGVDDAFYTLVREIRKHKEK
T3 sequence (P01116 1-169 isoform P01116-2 G12S): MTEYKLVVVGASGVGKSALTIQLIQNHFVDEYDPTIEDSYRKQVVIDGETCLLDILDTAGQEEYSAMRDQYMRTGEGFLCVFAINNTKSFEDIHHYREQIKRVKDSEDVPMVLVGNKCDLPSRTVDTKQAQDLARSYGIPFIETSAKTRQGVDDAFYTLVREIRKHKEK
T5 sequence (P01116 1-169 isoform P01116-2 G12D): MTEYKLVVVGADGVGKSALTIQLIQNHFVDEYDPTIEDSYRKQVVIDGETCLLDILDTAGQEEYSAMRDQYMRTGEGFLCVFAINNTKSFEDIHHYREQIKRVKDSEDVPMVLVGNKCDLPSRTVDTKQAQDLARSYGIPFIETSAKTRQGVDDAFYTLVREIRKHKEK
KRas^G13D, sequence (P01116 1-169 isoform P01116-2 G13D): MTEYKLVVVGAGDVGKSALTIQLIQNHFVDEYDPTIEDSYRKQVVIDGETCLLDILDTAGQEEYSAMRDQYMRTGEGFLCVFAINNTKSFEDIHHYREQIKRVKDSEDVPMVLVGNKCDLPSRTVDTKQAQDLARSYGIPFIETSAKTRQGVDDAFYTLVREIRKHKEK

IC50 (KRas^Q61H) [nM]	IC50 (KRas^WT) [nM]	IC50 (KRas^G12R) [nM]	IC50 (KRas^G12C) [nM]	IC50 (KRas^G13D) [nM]	IC50 (KRas^G12S) [nM]	IC50 (KRas^G12V) [nM]	IC50 (KRas^G12D) [nM]	IC50 (KRas^G12A) [nM]	Structure (SMILES)
4550	2900	744	893	3860	1160	1100	1160	2080	CCc1cccc2cccc(N3CCc4c(nc(OCC56CCCN5CCC6)nc4N4CCCc5ncccc5C4)C3)c12 [Example 55, 6-(7-(8-ethylnaphthalen-1-yl)-2-((hexahydro-1H-pyrrolizin-7a-yl)methoxy)-5,6,7,8-tetrahydropyrido[3,4-d]pyrimidin-4-yl)-6,7,8,9-tetrahydro-5H-pyrido[3,2-c]azepine]
5560	5120	1810	1650	5720	2030	1620	874	3010	CCc1cccc2cccc(N3CCc4c(nc(OCC56CCCN5CCC6)nc4N4CCCn5nc(C)cc5C4)C3)c12 [Example 56, 7-(8-ethylnaphthalen-1-yl)-2-((hexahydro-1H-pyrrolizin-7a-yl)methoxy)-4-(2-methyl-7,8-dihydro-4H-pyrazolo[1,5-a][1,4]diazepin-5(6H)-yl)-5,6,7,8-tetrahydropyrido[3,4-d]pyrimidine]
112	73	81	80	67	22	41	30	59	O=C1NC(=O)C2CN(c3nc(OCC45CCCN4CCC5)nc4c3CCN(c3cccc5cccc(Br)c35)C4)CC12 (stereo not drawn) [Example 78, 5-(7-(8-bromonaphthalen-1-yl)-2-((hexahydro-1H-pyrrolizin-7a-yl)methoxy)-5,6,7,8-tetrahydropyrido[3,4-d]pyrimidin-4-yl)tetrahydropyrrolo[3,4-c]pyrrole-1,3(2H,3aH)-dione]
151	109	135	116	111	35	67	53	128	O=C1NC(=O)C2CN(c3nc(OCC45CCCN4CCC5)nc4c3CCN(c3cccc5cccc(Cl)c35)C4)CC12 (stereo not drawn) [Example 79, 5-(7-(8-chloronaphthalen-1-yl)-2-((hexahydro-1H-pyrrolizin-7a-yl)methoxy)-5,6,7,8-tetrahydropyrido[3,4-d]pyrimidin-4-yl)tetrahydropyrrolo[3,4-c]pyrrole-1,3(2H,3aH)-dione]
260	200	285	211	213	68	130	121	428	Cc1cccc2cccc(N3CCc4c(nc(OCC56CCCN5CCC6)nc4N4CC5C(=O)NC(=O)C5C4)C3)c12 (stereo not drawn) [Example 80, 5-(2-((hexahydro-1H-pyrrolizin-7a-yl)methoxy)-7-(8-methylnaphthalen-1-yl)-5,6,7,8-tetrahydropyrido[3,4-d]pyrimidin-4-yl)tetrahydropyrrolo[3,4-c]pyrrole-1,3(2H,3aH)-dione]
5330	3610	4020	3560	3720	1160	3400	5400	4050	O=C1NC(=O)C2CN(c3nc(OCC45CCCN4CCC5)nc4c3CCN(c3cccc5cccc(F)c35)C4)CC12 (stereo not drawn) [Example 81, 5-(7-(8-fluoronaphthalen-1-yl)-2-((hexahydro-1H-pyrrolizin-7a-yl)methoxy)-5,6,7,8-tetrahydropyrido[3,4-d]pyrimidin-4-yl)tetrahydropyrrolo[3,4-c]pyrrole-1,3(2H,3aH)-dione]
606	712	291	475	552	696	958	1120	628	CCc1cccc2cccc(N3CCc4c(nc(OCC56CCCN5CCC6)nc4N4CCCC(n5cccn5)C4)C3)c12 (stereo not drawn) [Example 82, 4-(3-(1H-pyrazol-1-yl)piperidin-1-yl)-7-(8-ethylnaphthalen-1-yl)-2-((tetrahydro-1H-pyrrolizin-7a(5H)-yl)methoxy)-5,6,7,8-tetrahydropyrido[3,4-d]pyrimidine]
189	83	311	190	139	240	427	929	206	CCc1cccc2cccc(N3CCc4c(nc(OCC56CCCN5CCC6)nc4N4CCCC(N5CC(C)CS5(=O)=O)C4)C3)c12 (stereo not drawn) [Example 83, 2-(1-(7-(8-ethylnaphthalen-1-yl)-2-((tetrahydro-1H-pyrrolizin-7a(5H)-yl)methoxy)-5,6,7,8-tetrahydropyrido[3,4-d]pyrimidin-4-yl)piperidin-3-yl)-4-methylisothiazolidine 1,1-dioxide]
734	838	104	161	696	351	291	2110	215	CCc1cccc2cccc(N3CCc4c(nc(OCC56CCCN5CCC6)nc4N4CCCC(c5nc(N)n(C)n5)C4)C3)c12 (stereo not drawn) [Example 84, 3-(1-(7-(8-ethylnaphthalen-1-yl)-2-((tetrahydro-1H-pyrrolizin-7a(5H)-yl)methoxy)-5,6,7,8-tetrahydropyrido[3,4-d]pyrimidin-4-yl)piperidin-3-yl)-1-methyl-1H-1,2,4-triazol-5-amine]
213	140	399	274	186	263	491	1030	223	CCc1cccc2cccc(N3CCc4c(nc(OCC56CCCN5CCC6)nc4N4CCCC(N5CCCS5(=O)=O)C4)C3)c12 (stereo not drawn) [Example 85, 2-(1-(7-(8-ethylnaphthalen-1-yl)-2-((tetrahydro-1H-pyrrolizin-7a(5H)-yl)methoxy)-5,6,7,8-tetrahydropyrido[3,4-d]pyrimidin-4-yl)piperidin-3-yl)isothiazolidine 1,1-dioxide]
194	158	465	576	151	304	498	1320	225	CCc1cccc2cccc(N3CCc4c(nc(OCC56CCCN5CCC6)nc4N4CCC(CO)C(O)C4)C3)c12 (stereo not drawn) [Example 86, 1-(7-(8-ethylnaphthalen-1-yl)-2-((tetrahydro-1H-pyrrolizin-7a(5H)-yl)methoxy)-5,6,7,8-tetrahydropyrido[3,4-d]pyrimidin-4-yl)-4-(hydroxymethyl)piperidin-3-ol]
844	1010	165	470	1470	1150	1870	4880	1140	CCc1cccc2cccc(N3CCc4c(nc(OCC56CCCN5CCC6)nc4N4CCCC(c5cc(=O)[nH][nH]5)C4)C3)c12 (stereo not drawn) [Example 87, 5-(1-(7-(8-ethylnaphthalen-1-yl)-2-((tetrahydro-1H-pyrrolizin-7a(5H)-yl)methoxy)-5,6,7,8-tetrahydropyrido[3,4-d]pyrimidin-4-yl)piperidin-3-yl)-1,2-dihydro-3H-pyrazol-3-one]
228	215	470	482	176	505	403	1110	475	CCc1cccc2cccc(N3CCc4c(nc(OCC56CCCN5CCC6)nc4N4CCOCC(n5cncn5)C4)C3)c12 (stereo not drawn) [Example 88, 4-(7-(8-ethylnaphthalen-1-yl)-2-((tetrahydro-1H-pyrrolizin-7a(5H)-yl)methoxy)-5,6,7,8-tetrahydropyrido[3,4-d]pyrimidin-4-yl)-6-(1H-1,2,4-triazol-1-yl)-1,4-oxazepane]
929	959	219	465	1130	721	593	7110	427	CCc1cccc2cccc(N3CCc4c(nc(OCC56CCCN5CCC6)nc4N4CCC(OCC(N)=O)CC4)C3)c12 [Example 89, 2-((1-(7-(8-ethylnaphthalen-1-yl)-2-((tetrahydro-1H-pyrrolizin-7a(5H)-yl)methoxy)-5,6,7,8-tetrahydropyrido[3,4-d]pyrimidin-4-yl)piperidin-4-yl)oxy)acetamide]
963	765	229	382	919	459	435	1040	292	CCc1cccc2cccc(N3CCc4c(nc(OCC56CCCN5CCC6)nc4N4CCCC(NC(=O)N(C)C)C4)C3)c12 (stereo not drawn) [Example 91, 3-(1-(7-(8-ethylnaphthalen-1-yl)-2-((tetrahydro-1H-pyrrolizin-7a(5H)-yl)methoxy)-5,6,7,8-tetrahydropyrido[3,4-d]pyrimidin-4-yl)piperidin-3-yl)-1,1-dimethylurea]

Source: patent US12421253B2 (Mirati Therapeutics, Inc., priority 2020, dated 2025)
